Data from ChEMBL document CHEMBL1125524, “Adenosine A1 antagonists. 2. Structure-activity relationships on diuretic activities and protective effects against acute renal failure” (J Med Chem, 1992).

Experiments:
Rattus norvegicus [1] = assay: Serum creatinine concentration measured after intraperitoneal administration of 10 mg/kg of compound to rats(vehicle 4.38+/-0.17); type: functional
Rattus norvegicus [2] = assay: Oral diuretic activity was measured after oral administration of 25 mg/kg to rats(control volume is 0.76+/-0.01); type: functional, Urine
Rattus norvegicus [3] = assay: Percent inhibition of serum creatinine by the compound given as ratio of Cr value in treated to vehicle treated ones after intraperitoneal administration of 10 mg/kg of compound to rats(vehicle 4.38+/-0.17); type: functional; details: ip
Rattus norvegicus [4] = assay: Ratio of urinary excretion value (urinary volume) in treated rats to that in control rats, at a peroral dose of 25 mg/Kg; type: functional, Urine
Rattus norvegicus [5] = assay: Ratio of sodium ion/potassium ion concentration in treated rats to that in control rats, at a peroral dose of 25 mg/Kg; type: functional
Rattus norvegicus [6] = assay: Ratio of urinary excretion value (Na+ concentration) in treated rats to that in control rats, at a peroral dose of 25 mg/Kg; type: functional, Urine
Rattus norvegicus [7] = assay: Effect on urinary excretion potassium and sodium after oral administration of 25 mg/kg to rats(potassium and sodium excretion in control rat is 0.160+/-0.006); type: functional, Urine
Rattus norvegicus [8] = assay: Urea nitrogen concentration measured after intraperitoneal administration of 10 mg/kg of compound to rats(vehicle 164.3+/-4.9); type: functional
Rattus norvegicus [9] = assay: Percent inhibition of Urea nitrogen by the compound given as ratio of UN value in treated to vehicle treated ones after intraperitoneal administration of 10 mg/kg of compound to rats(vehicle 164.3+/-4.9); type: functional; details: ip
Adenosine A2 receptor = Adenosine A2 receptor (Rattus norvegicus, UniProt P29276+P30543)
Rattus norvegicus [10] = assay: Serum creatinine concentration measured after intraperitoneal administration of 1 mg/kg of compound to rats(vehicle 2.89+/-0.42); type: functional
Rattus norvegicus [11] = assay: Serum creatinine concentration measured after intraperitoneal administration of 10 mg/kg of compound to rats(vehicle 2.89+/-0.18); type: functional
Rattus norvegicus [12] = assay: Oral diuretic activity was measured after oral administration of 25 mg/kg to rats(control volume is 0.87+/-0.04); type: functional, Urine
Rattus norvegicus [13] = assay: Percent inhibition of serum creatinine by the compound given as ratio of Cr value in treated to vehicle treated ones after intraperitoneal administration of 1 mg/kg of compound to rats(vehicle 2.89+/-0.42); type: functional; details: ip
Rattus norvegicus [14] = assay: Ratio of urinary excretion value (Na+ concentration) in treated rats to that in control rats, at a peroral dose of 6.25 mg/Kg; type: functional, Urine
Rattus norvegicus [15] = assay: Effect on urinary excretion potassium and sodium after oral administration of 25 mg/kg to rats(potassium and sodium excretion in control rat is 0.134+/-0.017); type: functional, Urine
Rattus norvegicus [16] = assay: Percent inhibition of serum creatinine by the compound given as ratio of Cr value in treated to vehicle treated ones after intraperitoneal administration of 10 mg/kg of compound to rats(vehicle 2.89+/-0.18); type: functional; details: ip
Rattus norvegicus [17] = assay: Urea nitrogen concentration measured after intraperitoneal administration of 1 mg/kg of compound to rats(vehicle 107.7+/-15.2); type: functional
Rattus norvegicus [18] = assay: Urea nitrogen concentration measured after intraperitoneal administration of 10 mg/kg of compound to rats(vehicle 138.4+/-9.8); type: functional
Rattus norvegicus [19] = assay: Percent inhibition of Urea nitrogen by the compound given as ratio of UN value in treated to vehicle treated ones after intraperitoneal administration of 10 mg/kg of compound to rats(vehicle 138.4+/-9.8); type: functional; details: ip
Rattus norvegicus [20] = assay: Percent inhibition of Urea nitrogen by the compound given as ratio of UN value in treated to vehicle treated ones after intraperitoneal administration of 1 mg/kg of compound to rats(vehicle 107.7+/-15.2); type: functional; details: ip
Rattus norvegicus [21] = assay: Ratio of urinary excretion value (urinary volume) in treated rats to that in control rats, at a peroral dose of 6.25 mg/Kg; type: functional, Urine
Adenosine receptor A1 = molecular target: T1, Adenosine receptor A1 (Cavia porcellus, UniProt P47745)
T1 sequence (P47745 whole entry): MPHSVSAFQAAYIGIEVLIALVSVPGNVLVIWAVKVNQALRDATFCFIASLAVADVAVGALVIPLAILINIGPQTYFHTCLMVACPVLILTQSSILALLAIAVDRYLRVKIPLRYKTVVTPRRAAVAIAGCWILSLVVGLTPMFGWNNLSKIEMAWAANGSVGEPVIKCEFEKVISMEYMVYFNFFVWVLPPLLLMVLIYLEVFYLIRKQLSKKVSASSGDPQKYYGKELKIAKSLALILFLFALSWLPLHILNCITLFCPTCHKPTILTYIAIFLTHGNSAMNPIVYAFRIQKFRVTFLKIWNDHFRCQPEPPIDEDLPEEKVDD
Description: Binding affinity against adenosine A1 receptor in guinea pig forebrain membranes using N6-[3H]cyclohexyladenosine as radioligand

`CCCn1c(=O)c2c(nc(C(C3CC3)C3CC3)n2CCC)n(CCC)c1=O` was tested, and the Cr (Rattus norvegicus [1]) was 4.09 mg/dL, the Urine volume (Rattus norvegicus [2]) was 1.12 ml 6hr-1 100g-1 and the inhibition in vivo at 10 mg/kg (Rattus norvegicus [3]) was 7%. The T/C (Rattus norvegicus [4]) was 1.47, the “Na+/K+” value (Rattus norvegicus [5]) was 0.92 and the T/C (Rattus norvegicus [6]) was 1.18. It also gave a Na (Rattus norvegicus [7]) of 0.188 m equiv 6hr-1 100g-1, a UN (Rattus norvegicus [8]) of 159.2 mg/dL and an inhibition in vivo at 10 mg/kg (Rattus norvegicus [9]) of 3%. The Ki (Adenosine A2 receptor) was 6.3 µM.

Work on `FC(F)(F)c1nnc2c(NC3CCCC3)nc3ccccc3n12` yielded a Cr (Rattus norvegicus [10]) of 2.6 mg/dL, a Cr (Rattus norvegicus [11]) of 1.52 mg/dL and a Urine volume (Rattus norvegicus [12]) of 1.86 ml 6hr-1 100g-1. The T/C (Rattus norvegicus [4]) was 2.13, the inhibition in vivo at 1 mg/kg (Rattus norvegicus [13]) was 10% and the “Na+/K+” value (Rattus norvegicus [5]) was 1.71. The T/C (Rattus norvegicus [6]) was 1.55, the T/C (Rattus norvegicus [14]) was 1.1 and the Na (Rattus norvegicus [15]) was 0.314 m equiv 6hr-1 100g-1. It also gave an inhibition in vivo at 10 mg/kg (Rattus norvegicus [16]) of 48%, a UN (Rattus norvegicus [17]) of 92 mg/dL and a UN (Rattus norvegicus [18]) of 58.9 mg/dL. The inhibition in vivo at 10 mg/kg (Rattus norvegicus [19]) was 62%, the inhibition in vivo at 1 mg/kg (Rattus norvegicus [20]) was 15% and the T/C (Rattus norvegicus [21]) was 0.92. It also gave a Ki (Adenosine receptor A1) of 76 nM and a Ki (Adenosine A2 receptor) of 1.3 µM.
